What was measured:
[1] = target: BRAF (Homo sapiens, UniProt P15056); experiment: KD BRAF (Table 1; no method described); format: binding
[2] = test system: A375 cells (V600E mutated BRAF), ERK phospho-T202/Y204; experiment: HTRF assay for P-ERK determination in A375 cells (BRAF inhibition); format: cell-based; conditions: Homo sapiens, A-375, 1 hour drug incubation, DMSO = 100%, 10 μM Dabrafenib = 0%, top concentration 10 μM, read-out: P-ERK_A375: IC50
How it was run: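 A375 cells (V600E BRAF), 8000/well, treated 1 h with compounds at 0.001–10 μM final in duplicate; lysed and phospho-ERK (Thr202/Tyr204) read by HTRF at 665/620 nm after overnight RT incubation. Blank-subtracted ratios normalized to DMSO (100%) and 10 μM dabrafenib (0%); IC50 from sigmoidal fit.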

[3] = target: BRAF V660E (Homo sapiens, UniProt P15056, V600E); experiment: KD BRAF V660E (Table 1; no method described); format: binding
Chain of BRAF V660E (P15056 2-766 V600E): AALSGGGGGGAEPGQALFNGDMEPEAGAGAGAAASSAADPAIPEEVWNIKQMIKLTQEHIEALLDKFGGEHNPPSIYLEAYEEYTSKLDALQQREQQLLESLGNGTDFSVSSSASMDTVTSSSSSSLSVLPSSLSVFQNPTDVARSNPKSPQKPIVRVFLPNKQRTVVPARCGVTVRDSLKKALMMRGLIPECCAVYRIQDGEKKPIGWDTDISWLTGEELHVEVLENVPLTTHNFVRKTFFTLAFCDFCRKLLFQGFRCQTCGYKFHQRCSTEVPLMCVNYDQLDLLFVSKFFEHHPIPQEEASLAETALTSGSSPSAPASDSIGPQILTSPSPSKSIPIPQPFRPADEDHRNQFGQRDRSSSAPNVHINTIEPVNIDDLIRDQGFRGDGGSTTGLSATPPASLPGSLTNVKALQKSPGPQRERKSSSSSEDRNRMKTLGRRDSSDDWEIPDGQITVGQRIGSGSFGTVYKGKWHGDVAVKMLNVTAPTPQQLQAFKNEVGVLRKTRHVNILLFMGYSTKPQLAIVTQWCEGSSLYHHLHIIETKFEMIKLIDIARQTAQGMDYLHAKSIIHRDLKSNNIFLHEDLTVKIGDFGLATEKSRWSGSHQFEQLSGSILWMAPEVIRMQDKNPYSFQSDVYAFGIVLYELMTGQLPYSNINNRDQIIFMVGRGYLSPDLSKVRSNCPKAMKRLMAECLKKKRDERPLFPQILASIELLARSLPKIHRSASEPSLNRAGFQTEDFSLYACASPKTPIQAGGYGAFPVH

[4] = test system: HCT116 cells (WT BRAF), ERK phospho-T202/Y204; experiment: HTRF assay for P-ERK determination in HCT116 cells (BRAF activation, paradox); format: cell-based; conditions: for EC50: Homo sapiens, HCT-116, HCT116 cells, 1 hour drug incubation, activation relative to maximum Dabrafenib-mediated activation (100%), top concentration 10 μM, read-out: P-ERK_HCT-116: EC50—50PCT; for Fold Selectivity HCT-116 EC50-50/ A375: ratio of P-ERK HCT-116 EC50-50PCT to P-ERK A375 IC50
How it was run: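 HCT116 (WT BRAF) cells, 8000/well in DMEM + 10% FBS, treated 1 h with compound at 0.001–10 μM in duplicate; lysed, then HTRF antibodies for ERK phospho-T202/Y204, read after overnight dark incubation at room temperature. Blank-subtracted ratio normalized to DMSO (0%) and peak dabrafenib signal (100%); sigmoidal or bell-shaped fit gives % activation.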

Chain of BRAF (P15056 whole entry): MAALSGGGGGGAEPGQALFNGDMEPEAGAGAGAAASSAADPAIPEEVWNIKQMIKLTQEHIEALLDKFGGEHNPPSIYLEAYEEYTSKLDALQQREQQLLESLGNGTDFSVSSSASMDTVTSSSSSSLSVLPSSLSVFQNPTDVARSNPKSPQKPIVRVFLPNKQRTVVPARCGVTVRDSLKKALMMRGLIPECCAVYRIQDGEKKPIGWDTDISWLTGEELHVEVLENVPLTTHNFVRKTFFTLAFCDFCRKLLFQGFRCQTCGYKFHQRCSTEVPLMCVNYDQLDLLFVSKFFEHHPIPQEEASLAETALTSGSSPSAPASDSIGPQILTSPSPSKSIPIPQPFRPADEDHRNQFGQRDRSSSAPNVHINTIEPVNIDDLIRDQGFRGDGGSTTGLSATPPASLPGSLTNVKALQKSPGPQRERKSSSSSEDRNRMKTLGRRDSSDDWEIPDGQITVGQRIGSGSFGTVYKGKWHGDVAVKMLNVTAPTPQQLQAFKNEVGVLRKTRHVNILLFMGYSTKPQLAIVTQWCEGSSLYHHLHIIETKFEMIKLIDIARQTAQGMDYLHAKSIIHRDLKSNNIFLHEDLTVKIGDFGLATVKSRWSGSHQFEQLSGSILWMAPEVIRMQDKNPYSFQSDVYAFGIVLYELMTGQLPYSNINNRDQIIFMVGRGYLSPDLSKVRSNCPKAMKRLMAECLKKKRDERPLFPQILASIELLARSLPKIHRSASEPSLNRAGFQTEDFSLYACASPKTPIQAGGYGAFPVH

| SMILES | Kd [1] | IC50 [2] | Kd [3] | EC50 [4] | Fold Selectivity HCT-116 EC50-50/ A375 [4] |
| --- | --- | --- | --- | --- | --- |
| Cn1c(=O)c(-c2c(F)ccc(NS(=O)(=O)N3CC[C@@H](F)C3)c2F)cc2cnc(NCCOc3ccccc3)nc21 [Example 6, (3R)-N-[2,4-difluoro-3-[8-methyl-7-oxo-2-(2-phenoxyethylamino)pyrido[2,3-d]pyrimidin-6-yl]phenyl]-3-fluoropyrrolidine-1-sulfonamide] | 35.7 nM | 13.4 nM | 120 nM | 711 nM | 52.9 |
| Cn1c(=O)c(-c2c(F)ccc(NS(=O)(=O)N3CC[C@@H](F)C3)c2F)cc2cnc(NCCCc3ccccc3)nc21 [Example 5, (3R)-N-[2,4-difluoro-3-[8-methyl-7-oxo-2-(3-phenylpropylamino)pyrido[2,3-d]pyrimidin-6-yl]phenyl]-3-fluoropyrrolidine-1-sulfonamide] | 46.5 nM | 42.6 nM | 115 nM | 394 nM | 9.2 |
| CCN(C)S(=O)(=O)Nc1ccc(F)c(-c2cc3cnc(NCCCNC)nc3n(C)c2=O)c1F.Cl [Example 17, 6-[3-[[ethyl(methyl)sulfamoyl]amino]-2,6-difluorophenyl]-8-methyl-2-[3-(methylamino)propylamino]-7-oxopyrido[2,3-d]pyrimidine hydrochloride] | 168 nM | 1260 nM | 385 nM | 7520 nM | 6.0 |
| CCN(C)S(=O)(=O)Nc1ccc(F)c(-c2cc3cnc(NCCCN(C)C(C)=O)nc3n(C)c2=O)c1F [Example 30, N-[3-[[6-[3-[[ethyl(methyl)sulfamoyl]amino]-2,6-difluorophenyl]-8-methyl-7-oxopyrido[2,3-d]pyrimidin-2-yl]amino]propyl]-N-methylacetamide] | 72.3 nM | 287 nM | 159 nM | 5700 nM | 19.8 |
| Cl.Cn1c(=O)c(-c2c(F)ccc(NS(=O)(=O)N3CC[C@@H](F)C3)c2F)cc2cnc(NCCOCCN)nc21 [Example 15, (3R)-N-[3-[2-[2-(2-aminoethoxy)ethylamino]-8-methyl-7-oxopyrido[2,3-d]pyrimidin-6-yl]-2,4-difluorophenyl]-3-fluoropyrrolidine-1-sulfonamide hydrochloride] | 81.7 nM | 617 nM | 194 nM | ≥ 10000 nM | 16.2 |
| Cn1c(=O)c(-c2c(F)ccc(NS(=O)(=O)N3CCCC3)c2F)cc2cnc(NCCC3CCN(C(=O)OC(C)(C)C)CC3)nc21 [Example 8, tert-butyl 4-[2-[[6-[2,6-difluoro-3-(pyrrolidin-1-ylsulfonylamino)phenyl]-8-methyl-7-oxopyrido[2,3-d]pyrimidin-2-yl]amino]ethyl]piperidine-1-carboxylate] | 261 nM | 241 nM | 314 nM | 9760 nM | 40.5 |

Compounds with a lower Kd [1], results first:

| Kd [1] | IC50 [2] | Kd [3] | EC50 [4] | Fold Selectivity HCT-116 EC50-50/ A375 [4] | SMILES |
| --- | --- | --- | --- | --- | --- |
| 10.2 nM | 36.7 nM | 27 nM | 1650 nM | 44.9 | CC(=O)N1CCC(CCNc2ncc3cc(-c4c(F)ccc(NS(=O)(=O)N5CC[C@@H](F)C5)c4F)c(=O)n(C)c3n2)CC1 [Example 20, (3R)—N-[3-[2-[2-(1-acetylpiperidin-4-yl)ethylamino]-8-methyl-7-oxopyrido[2,3-d]pyrimidin-6-yl]-2,4-difluorophenyl]-3-fluoropyrrolidine-1-sulfonamide] |
| 7.1 nM | 184 nM | 20.8 nM | ≥ 10000 nM | >54.4 | CC(=O)N1CC(Nc2ncc3cc(-c4c(F)ccc(NS(=O)(=O)N5CC[C@@H](F)C5)c4F)c(=O)n(C)c3n2)C1 [Example 22, (3R)-N-[3-[2-[(1-acetylazetidin-3-yl)amino]-8-methyl-7-oxopyrido[2,3-d]pyrimidin-6-yl]-2,4-difluorophenyl]-3-fluoropyrrolidine-1-sulfonamide] |
| 7.9 nM | 6 nM | 23 nM | 491 nM | 81.8 | Cn1c(=O)c(-c2c(F)ccc(NS(=O)(=O)N3CC[C@@H](F)C3)c2F)cc2cnc(NCCc3ccccc3)nc21 [Example 2, (3R)-N-[2,4-difluoro-3-[8-methyl-7-oxo-2-(2-phenylethylamino)pyrido[2,3-d]pyrimidin-6-yl]phenyl]-3-fluoropyrrolidine-1-sulfonamide] |
| 2.2 nM | 49.5 nM | 4 nM | 463 nM | 9.4 | CCN(C)S(=O)(=O)Nc1cccc(-c2cc3cnc(NCCC4CCN(C(C)=O)CC4)nc3n(C)c2=O)c1C#N [Example 37, 2-[2-(1-acetylpiperidin-4-yl)ethylamino]-6-[2-cyano-3-[[ethyl(methyl)sulfamoyl]amino]phenyl]-8-methyl-7-oxopyrido[2,3-d]pyrimidine] |
| 25.5 nM | 207 nM | 71.6 nM | 5870 nM | 28.3 | Cl.Cn1c(=O)c(-c2c(F)ccc(NS(=O)(=O)N3CC[C@@H](F)C3)c2F)cc2cnc(NCCCC3CCNCC3)nc21 [Example 18, (3R)-N-[2,4-difluoro-3-[8-methyl-7-oxo-2-(3-piperidin-4-ylpropylamino)pyrido[2,3-d]pyrimidin-6-yl]phenyl]-3-fluoropyrrolidine-1-sulfonamide hydrochloride] |

Reference: patent US20230322776A1, “NEW ARYL-PYRIDO-PYRIMIDIN-ONE DERIVATIVES” (Hoffmann-La Roche Inc., priority 2020, published 2023)
